These results are taken from patent US10034915B2, “Small heat shock proteins and active fragments thereof as a therapy for inflammation and ischemia” (The Board of Trustees of the Leland Stanford Junior …, priority 2011, dated 2018).

“Also recorded” adds a separate entry of the source.

One assay deals with EAE mice. As to the kind of experiment: EAE in 129Sv WT mice immunized with MOG35-55/CFA, clinical scoring. Format: in vivo, mouse. Conditions: for AREA UNDER THE CURVE (amount higher than HSPB5 normalized to PBS): average EAE scores, peptide every other day from peak of disease, 129Sv WT mice, n=5 per group; for therapeutic efficacy of peptide in EAE (clinical scores): peptide every other day from peak of disease (10 μg, or 1 μg equimolar to 10 μg protein); for clinical paralysis / EAE clinical scores: 10 μg sHSP protein IP every other day starting at the peak of disease; for clinical paralysis / EAE clinical scores / EAE clinical scores over the course of the whole experiment (area under the curve): vs PBS; for EAE clinical scores over the course of the whole experiment (area under the curve): 10 μg sHSP protein IP every other day from peak of disease. Here is the method: To investigate if the therapeutic efficacy of HSPB5 is a common feature of the whole family of small heat shock proteins, we expressed recombinant HSPB1, HSPB4, and HSPB5. We then treated EAE mice every other day starting at the peak of disease, when clinical paralysis is apparent, with an intraperitoneal (IP) administration of 10 μg of either HSPB1, HSPB4, HSPB5, or PBS as the vehicle control. […] Treating mice in vivo with HSPB1, HSPB4, or HSPB5 led to a reduction in the production of pro-inflammatory cytokines by MOG stimulated splenocytes taken from MOG immunized mice (FIG. 1c). Improvement of the clinical score was dependent on continued dosing of the sHSP. After dosing was stopped, symptoms returned, and paralysis worsened after 96 hours.
Therapeutic Peptides from HSPB5 in EAE. […] We made a series of overlapping, 15-mer peptide fragments of HSPB5 and treated mice at the peak of disease with 10 μg of each peptide every other day, using HSPB5 as a positive control and PBS as a negative control.
EAE induction and scoring. Mice were immunized subcutaneously with 100 μL of myelin oligodendrocyte glycoprotein (MOG) peptide 35-55 (2 mg/mL) and Complete Freund's adjuvant (CFA) (4 mg/mL) on Day 0. […] Mice were randomized at the peak of disease into the treatment groups where they received 10 ug/200 μL of sHSP, 1 μg/200 uL of sHSP peptide, or 200 μL of PBS (vehicle) every other day. Mice were scored every day on a clinical scoring system: 0, healthy mouse; 1, limp tail; 2, weak hindlimbs; 3, complete hindlimb paralysis; 4, weak forelimbs and paralyzed hindlimbs; 5, dead.

In assay [1] the test system is pro-inflammatory cytokines of MOG stimulated splenocytes. As to the kind of experiment: Peripheral immune cell activation: cytokine production by MOG stimulated splenocytes of treated MOG immunized mice (ELISA). Also on record: species or system mouse. As to conditions: mice treated in vivo; splenocytes from MOG immunized mice. Here is the method:
Peripheral immune cell activation and cytokine analysis. Spleens and lymph nodes were isolated from mice 9 days after immunization with MOG35-55 and CFA. Spleens were mechanically disrupted to isolate single cell splencytes suspension. Cells were cultured in flat bottomed, 96-well plates in media (RPMI 1640 supplemented with […] L-glutamine, 1 mM sodium pyruvate, 0.1 mM non-essential amino acids, 100 U/mL penicillin, 0.1 mg/mL streptomycin, 0.5 uM 2-mercaptoethanol, and 10% fetal calf serum). Cells were stimulated with MOG35-55 (5 ug/mL, 10 ug/mL, and 20 ug/mL). For all activation assays, splenocytes were pooled from three mice per group and triplicate wells were plated. Supernatants of cells were collected at the time of peak production for each cytokine (48 hrs: IL-2, IL-12p40, IL-6; 72 hrs: TNFα and IFNγ; 96 hrs: IL-17; 120 hrs: IL-10). Cytokines were measured in the supernatants using anti-mouse OPTEIA ELISA kits (BD Pharmingen for IFNγ, IL-10, IL-2, IL-6, and IL-12p40; R&D Systems for IL-17 and TNFα).

The next assay relates to mice with EAE. As to the kind of experiment: EAE in C57BL/6J mice (MOG35-55/CFA, pertussis toxin), neurological impairment scoring. It is filed as in vivo, mouse. As to conditions: intraperitoneal 10-50 μg every other day starting at the peak of disease. The method, then:
It was tested if the chaperone function of residues 73-92 of HspB5 were capable of reducing the symptoms of experimental allergic encephalomyelist (EAE), by inducing EAE in 9-week old female C57BL/6J by immunized subcutaneously with an emulsion containing 200 μg myelin oligodendrocyte glycoprotein 35-55 (MOG35-55; […] (SEQ ID NO:24)) in saline and an equal volume of complete Freund's adjuvant. Intraperitoneal injection of pertussis toxin at 0 and 48 h post-immunization results in paralysis beginning at day 12.

The subject of assay [2] is partially denatured proteins. As to conditions: in vitro, literature; cited from earlier work.

Regarding “EKDRFSVNLDVKHFS (listed as Homo sapiens) [HSPB5 peptide 71-85]”, in the assay on EAE mice, the “AREA UNDER THE CURVE (amount higher than HSPB5 normalized to PBS)” value stood at 0.06 and the “therapeutic efficacy of peptide in EAE (clinical scores)” value (shortened to “therapeutic efficacy of peptide in EAE”) is “marked therapeutic efficacy”. DKFVIFLDVKHFSPEDLTVK [HSPB4 73-92]: the “production of pro-inflammatory cytokines by MOG stimulated splenocytes” value (shortened to “production of pro-inflammatory cytokines”) in assay [1] is “decrease peripheral immune activation”. Besides, the figures for the “therapeutic efficacy of peptide in EAE” value in the assay with EAE mice and in the assay with EAE mice (listed as HSPB4 73-93) were “therapeutic in EAE” and “as therapeutic as full length proteins”, respectively.

As to “HSPB7: recombinant human small heat shock protein”, the “clinical paralysis / EAE clinical scores” value in the assay on EAE mice is given as “ameliorated EAE”. For the molecule “QVSGPERTIPITREE (listed as Homo sapiens) [HSPB5 peptide 151-165]”, the “AREA UNDER THE CURVE (amount higher than HSPB5 normalized to PBS)” value with EAE mice is on record as 0.29. For the molecule DRWRVSLDVNHFAPDELTVK [HSPB1 73-92], in assay [1], the “production of pro-inflammatory cytokines” value is listed as “decrease peripheral immune activation”. Also, the “therapeutic efficacy of peptide in EAE” value is “therapeutic in EAE” in the assay on EAE mice and “as therapeutic as full length proteins” in the assay on EAE mice (listed as HSPB1 73-93).

For “STSLSPFYLRPPSFL (listed as Homo sapiens) [HSPB5 peptide 41-55]”, the “AREA UNDER THE CURVE (amount higher than HSPB5 normalized to PBS)” value in the assay with EAE mice is listed as 0.28. With HSP27 [HSPB1], the “production of pro-inflammatory cytokines” value in assay [1] is “reduction”. Also, in the assay with EAE mice, the “EAE clinical scores over the course of the whole experiment (area under the curve)” value was “significantly improved” and the “clinical paralysis / EAE clinical scores” value is “significantly ameliorated clinical paralysis; also recorded: therapeutic”. For the same molecule, the “clinical paralysis / clinical scores of mice with EAE” value with mice with EAE is “significant reduction of clinical paralysis”. With “PPSFLRAPSWFDTGL (listed as Homo sapiens) [HSPB5 peptide 51-65]”, the “AREA UNDER THE CURVE (amount higher than HSPB5 normalized to PBS)” value with EAE mice was found to be 0.10. With αA-crystallin [HSPB4], the “production of pro-inflammatory cytokines” value in assay [1] is listed as “reduction”. In addition, in the assay on EAE mice, the “EAE clinical scores over the course of the whole experiment (area under the curve)” value is listed as “significantly improved” and the “clinical paralysis / EAE clinical scores” value is “significantly ameliorated clinical paralysis; also recorded: therapeutic”. Further, in the assay with mice with EAE, the “clinical paralysis / clinical scores of mice with EAE” value is given as “significant reduction of clinical paralysis”. Consider “HGFISREFHRKYRIP (listed as Homo sapiens) [HSPB5 peptide 111-125]”, for which the “AREA UNDER THE CURVE (amount higher than HSPB5 normalized to PBS)” value with EAE mice was 0.33. On the same count and under the same terms, to “HLLESDLFPTSTSLS (listed as Homo sapiens) [HSPB5 peptide 31-45]” belongs 0.33; to “SRLFDQFFGEHLLES (listed as Homo sapiens) [HSPB5 peptide 21-35]”, 0.28. On to “ITREEKPAVTAAPKK (listed as Homo sapiens) [HSPB5 peptide 161-175]”, for which, in the assay with EAE mice, the “AREA UNDER THE CURVE (amount higher than HSPB5 normalized to PBS)” value was determined as 0.08 and the “therapeutic efficacy of peptide in EAE” value is given as “therapeutic”.

Consider “LTITSSLSSDGVLTV (listed as Homo sapiens) [HSPB5 peptide 131-145]”, for which, in the assay on EAE mice, the “AREA UNDER THE CURVE (amount higher than HSPB5 normalized to PBS)” value worked out at 0.08 and the “therapeutic efficacy of peptide in EAE” value is given as “therapeutic”.

As for “RRPFFPFHSPSRLFD (listed as Homo sapiens) [HSPB5 peptide 11-25]”, in the assay on EAE mice, the “AREA UNDER THE CURVE (amount higher than HSPB5 normalized to PBS)” value is −0.11 and the “therapeutic efficacy of peptide in EAE” value is recorded as “therapeutic”.

B1: Arg120Gly: naturally occurring mutated HSPB5, arginine to glycine at amino acid position 120 (protein, UniProt P02511 1-175, looked up, variant R120G)
Alpha-crystallin B chain: MDIAIHHPWIRRPFFPFHSPSRLFDQFFGEHLLESDLFPTSTSLSPFYLRPPSFLRAPSWFDTGLSEMRLEKDRFSVNLDVKHFSPEELKVKVLGDVIEVHGKHEERQDEHGFISREFHGKYRIPADVDPLTITSSLSSDGVLTVNGPRKQVSGPERTIPITREEKPAVTAAPKK
For B1, the molecular chaperone activity result in assay [2] is listed as “partial loss of molecular chaperone activity”. In addition, the “production of pro-inflammatory cytokines” value in assay [1] is “reduction; also recorded: suppressed”. In the assay with EAE mice, the “clinical paralysis / EAE clinical scores” value was “did improve clinical scores; also recorded: ameliorated EAE just as well as HSPB5”.

B2: HSPB9: recombinant human small heat shock protein (protein, UniProt Q9BQS6 1-159, looked up)
Heat shock protein beta-9: MQRVGNTFSNESRVASRCPSVGLAERNRVATMPVRLLRDSPAAQEDNDHARDGFQMKLDAHGFAPEELVVQVDGQWLMVTGQQQLDVRDPERVSYRMSQKVHRKMLPSNLSPTAMTCCLTPSGQLWVRGQCVALALPEAQTGPSPRLGSLGSKASNLTR
As for B2, the “clinical paralysis / EAE clinical scores” value with EAE mice is “ameliorated EAE”.

B3: myotonic dystrophy protein kinase binding protein, MKBP (protein, UniProt Q16082 1-182, looked up)
Heat shock protein beta-2: MSGRSVPHAHPATAEYEFANPSRLGEQRFGEGLLPEEILTPTLYHGYYVRPRAAPAGEGSRAGASELRLSEGKFQAFLDVSHFTPDEVTVRTVDNLLEVSARHPQRLDRHGFVSREFCRTYVLPADVDPWRVRAALSHDGILNLEAPRGGRHLDTEVNEVYISLLPAPPDPEEEEEAAIVEP
notes: recombinant human small heat shock protein
Consider B3, for which the “clinical paralysis / EAE clinical scores” value with EAE mice is “ameliorated EAE”.

B4: Hsp22 (protein, UniProt O14558 1-160, looked up)
Heat shock protein beta-6: MEIPVPVQPSWLRRASAPLPGLSAPGRLFDQRFGEGLLEAELAALCPTTLAPYYLRAPSVALPVAQVPTDPGHFSVLLDVKHFSPEEIAVKVVGEHVEVHARHEERPDEHGFVAREFHRRYRLPPGVDPAAVTSALSPEGVLSIQAAPASAQAPPPAAAK
notes: as for B3
Turning to B4, in the assay with EAE mice, the “clinical paralysis / EAE clinical scores” value is on record as “ameliorated EAE”.

B5: HSPB3: recombinant human small heat shock protein (protein, UniProt Q12988 1-150, looked up)
Heat shock protein beta-3: MAKIILRHLIEIPVRYQEEFEARGLEDCRLDHALYALPGPTIVDLRKTRAAQSPPVDSAAETPPREGKSHFQILLDVVQFLPEDIIIQTFEGWLLIKAQHGTRMDEHGFISRSFTRQYKLPDGVEIKDLSAVLCHDGILVVEVKDPVGTK
For the molecule B5, in the assay on EAE mice, the “clinical paralysis / EAE clinical scores” value is given as “ameliorated EAE”.

B6: Hsp20 (protein, UniProt Q9UJY1 1-196, looked up)
Heat shock protein beta-8: MADGQMPFSCHYPSRLRRDPFRDSPLSSRLLDDGFGMDPFPDDLTASWPDWALPRLSSAWPGTLRSGMVPRGPTATARFGVPAEGRTPPPFPGEPWKVCVNVHSFKPEELMVKTKDGYVEVSGKHEEKQQEGGIVSKNFTKKIQLPAEVDPVTVFASLSPEGLLIIEAPQVPPYSTFGESSFNNELPQDSQEVTCT
notes: as for B3
On to B6, for which the “clinical paralysis / EAE clinical scores” value with EAE mice is “ameliorated EAE”.
